Source: patent US20100062993A1, “Adenosine Nucleotides as Dietary Supplements and as Agents in the Prevention of Cancer and the Metastasis Thereof” (priority 2008, published 2010)

System: human cancer cell linings
Assay: Mice implanted with human cancer (tumor) cell linings: efficacy of MTA relative to SAMe
Type: in vivo
Text: It is therefore astonishing that MTA, in experimental results on mice implanted with tumor cell linings, was 10 times more efficacious than SAMe. Part of the pharmacodynamics is surely that MTA is toxic to many cancer cells that are deficient in the enzymes that are needed to process it. Yet this 10:1 efficacy ratio is inexplicable under the above suppositions!
This is extremely surprising in light of the above!

`CSC[C@H]1O[C@@H](n2cnc3c(N)ncnc32)[C@H](O)[C@@H]1O` [MTA, 5-deoxy-5-methylthioadenosine] was tested, and the “efficacy relative to SAMe” value (mice implanted with human cancer cell linings, ratio versus SAMe) was “more than 10 fold” and the “efficacy of MTA relative to SAMe (times more efficacious)” value (mice implanted with tumor cell linings, ratio versus SAMe (10:1)) was 10 times.
